This is an account of results in US12594296B2, “Methods for treatment or prevention of damage resulting from radiation, trauma or shock” (priority 2012, dated 2026).

Series [1] concerns mice exposed to ionizing radiation. The series is described as follows: Survival after three doses of total body radiation (Example 11). Type of series: in vivo, CB57BL/6 mice. To be noted: for mortality, vehicle versus PAAG: 50 mg/kg once a day oral gavage. Here is the method:
Male CB57BL/6 mice of the same weight and age were subjected to radiation doses of 12.5, 13.5 and 14.0 Gy. Animals were given the same dose of PAAG (50 mg/kg once a day) by oral gavage as in the previous study. Eighteen (18) animals were studied in each of […]: irradiated control and active PAAG at each dose. Mortality data is shown in FIG. 30 for three doses of total body radiation treated with vehicle or PAAG given via oral gavage daily.

A further series deals with Acinetobacter baumaunii. Put plainly: Caco2 attachment of Acinetobacter baumannii. Format: cell-based. To be noted: pretreatment 200 μg/mL 1 h; relative to untreated cells. Here is the method:
Caco2 Attachment. The gut epithelium cell line (Caco2) were grown in Eagle's Minimal Essential Media (EMEM) supplemented with 10% (v/v) fetal bovine serum and 2 mm L-glutamine. Caco2 cells were seeded at 2.5×10^5 per well in 24 well plates and incubated at 37° C. and in atmosphere of 5% CO2 for 24 hours to confluency. The cells were then rinsed twice with D-PBS and replaced with (EMEM) without fetal bovine serum for another 24 hours. Cells were rinsed with D-PBS twice and replaced with media containing no fetal bovine serum. Pretreatment of the cells with PAAG 200 ug/ml (86 kDa, 30% functionalization; 37 kDa, 22% functionalization; and 27 kDa, 21% functionalization) dissolved in media without serum for one hour was performed and the cells were then rinsed twice with D-PBS to remove any non-adherent PAAG. After rinsing, the cells were inoculated with Acinetobacter baumaunii in growth phase at a multiplicity of infection (MOI) of 1:100 for one hour. Cells were then rinsed twice with D-PBS before being lysed using 0.5% Triton X-100 in D-PBS. Supernatants were extracted and serially diluted, plated and counted for bacterial attachment.
Pretreatment and binding studies were performed as described above for Caco2 cells with Acinetobacter attachment and Burkholderia cepacia macrophage uptake studies, with the PAAG (86 kDa and 30% functionalization) added to the indicated final concentrations.

For “poly (acetyl, arginyl) glucosamine [PAAG]”, the “mortality, vehicle versus PAAG” value in series [1] (12.5 Gy) is “numerically significant”; in series [1] (13.5 Gy), “not statistically different”; in series [1] (14.0 Gy), “not statistically different”. For the same substance, the mortality entry in series [1] (after LD70 ionizing radiation) is listed as “reduced”. In addition, in series [1] (any dose), the adverse effects entry was “No adverse effects”. Moreover, the “percentage of bacteria bound to Caco2 cells” value in the series on Acinetobacter baumaunii is recorded as “decreases”.
